Measurements reported in patent publication US20090291095A1, “NANOEMULSION ADJUVANTS” (The Regents of the University of Michigan, priority 2008, published 2009).

Test system: virus
Assay: Virus inactivation by BCTP component
Conditions: concentrations equivalent to 11% BCTP

TRITON-X100
ability to inactivate a virus: less ability to inactivate a virus
